Values after ≈ are worked out from the molar mass of the structure shown.
Assay: Solubility of TMB in different solvents
Format: physicochemical
Text: The following Table 1 presents results regarding the solubility of TMB in different solvents.

Cc1cc(-c2cc(C)c(N)c(C)c2)cc(C)c1N [TMB, 3,3′,5,5′-tetramethylbenzidine]
solubility (organic solvent or mixture, solvent Dimethylsulfonamide): 1.6 mM (≈ 385 µg/mL) | solubility (organic solvent or mixture, solvent Ethyl acetate): 10 mM (≈ 2400 µg/mL) | solubility (organic solvent or mixture, solvent Methanol): 5.2 mM (≈ 1250 µg/mL) | solubility (water, solvent Water): 0.1 mM (≈ 24 µg/mL)

Reference: patent US9547000B2, “Chromogenic absorbent material for animal litter and related chromogenic solution” (7905122 CANADA INC., priority 2012, dated 2017)
